# Earlier results in article PMC3800486 (Amino acids, 2013).
# Test system: polo-like kinase 1 (Plk1) polo box domain (PBD)
# Details: previously shown; ref Yun et al. 2009; Liu et al. 2011; Liu et al. 2012b, a
substance,measurement,value
Ac-Pro-Leu-His-Ser-Pmab-amide,affinity for the Plk1 PBD (in words),good affinity
